{"source": "paper PMC9783881", "about": "“Synthesis and Preclinical Evaluation of Small-Molecule Prostate-Specific Membrane Antigen-Targeted Abiraterone Conjugate” (Molecules, 2022)", "key": {"[1]": {"tested_on": "22Rv1 cells", "assay": "Cell cycle analysis", "type": "cell-based, human", "experimental": "Cell cycle was analyzed in 22Rv1 cells fixed in 70% ethanol with Muse® cell cycle kit. The fixation lasted overnight at −20 °C. Then, cells were collected by centrifugation at 4000 rpm for 10 min and washed with PBS. The cells were resuspended with Muse® Cell Cycle reagent and incubated for 30 min at room temperature in the dark; then, they were counted."}, "[2]": {"tested_on": "PC-3", "assay": "Single cell ROS measurement with Pt-nanoelectrodes, PC-3", "type": "cell-based, human", "settings": "PC-3, 1 h incubation, IC50 concentration", "experimental": "(§1) Commercially available, disk-shaped carbon nanoelectrodes isolated in quartz (ICAPPIC Limited, London, UK) with diameters of 60–100 nm were used to prepare Pt nanoelectrodes for the amperometric detection of intracellular ROS level. Preparation of Pt-nanoelectrodes has been described in detail previously.\n(§2) Briefly, a disk-shaped carbon nanoelectrode was etched in a 0.1 M NaOH, 10 mM KCl solution for 20–40 cycles of 10 seconds (from 0 to +2200 mV) to create nanocavities. Electrochemical deposition of platinum in nanocavities was achieved by cycling from 0 to −800 mV with a scan rate of 200 mV s^−1 for 8 to 10 cycles in 2 mM H2PtCl6 solution in 0.1 M hydrochloric acid. […]\n(§3) The setup for amperometric measurements included a PC that was connected to a system consisting of an ADC–DAC converter Axon Digidata 1550B (Axon Instruments, Burlingame, CA, USA) and patch-clamp amplifier MultiClamp 700B (Axon Instruments, USA). […] The potential difference between the Pt-nanoelectrode and the reference electrode was recorded with the pClamp 11 software suite (Molecular Devices, Silicon Valley, CA, USA) and processed with Origin 2018 software.\n(§4) PC-3 (2.0 × 10^5)/22Rv1 (3.5 × 10^5) cells were seeded in 35 mm Petri dishes, incubated under the conditions described above, and then treated for 24 h. […] Untreated cells were used as a control, which was evaluated at the beginning and at the end of the experiment. […]"}, "[3]": {"assay": "Cytotoxicity on human adult dermal fibroblasts, MTT-test", "type": "cell-based", "settings": "human, human adult dermal fibroblasts (HDFa); HDFa, 72 h, MTT", "experimental": "Human adult dermal fibroblasts (HDFa). (ATCC) were propagated in DMEM medium (Paneco) supplemented with 10% fetal calf serum (Gibco) and 1% pemicillin/streptomycin in a 5% CO2 atmosphere at 37 °C. Cytotoxicity of PSMA-Abi and AbiAc in fibroblasts were studied using MTT-test. The cells in the exponential growth phase were trypsinized, counted, and seeded at a density of 5000 cells/well in 96-well plate. Cells were incubated with both tested agents at the designated concentrations (0.4–100 μM) for 72 h; then, each well was treated with 20 μL MTT solution in PBS (5 mg/mL) and cells were incubated at least for 3 h, and formazan was dissolved in DMSO. The absorbance was measured at […] and 620 nm using Thermofischer Scientific Multiscan FC. The values for each point were calculated from 6 wells."}, "[4]": {"tested_on": "22Rv1", "assay": "Single cell ROS measurement with Pt-nanoelectrodes, 22Rv1", "type": "cell-based, human", "settings": "22Rv1, 1 h incubation, IC50 concentration", "experimental": "as §1, §2, §3, §4"}, "[5]": {"settings": "mouse, in vivo; cited from earlier work"}, "[6]": {"tested_on": "22Rv1", "assay": "Cytotoxicity (CC50) on 22Rv1 cells", "type": "cell-based", "settings": "Homo sapiens, 22Rv1, read-out: CC50, 22Rv1", "experimental": "The in vitro efficacy study of the PSMA-Abi conjugate included an assessment of its cytotoxic potential towards prostate cancer cell cultures (Table 1). […] Thus, we observed an increase in the efficacy of the conjugate towards the PSMA-expressing line. Additionally, an evaluation in a non-tumor model was performed. The toxicity of both compounds was evaluated on human adult dermal fibroblasts (HDFa); both of the agents in the tested concentrations (0.4–100 µM) were non-toxic for human fibroblasts.\n22Rv1 and PC-3 cells were received from the MISIS collection of cell lines (less than ten passages from ATCC stock). All cells were cultured in humidified 37 °C incubators with 5% CO2. All cell lines were tested for the absence of mycoplasma. 22Rv1, androgen-responsive PSMA-positive human prostate carcinoma cells, were cultured in RPMI 1640 media (Gibco) with 10% FBS (Gibco), 1× GlutaMax (Gibco), and 1× Penicillin-Streptomycin (10,000 U/mL, Gibco). PC-3, PSMA-negative human prostate cancer cells, were cultured in DMEM/F12 media (Gibco) with 10% FBS (Gibco), 1× GlutaMax (Gibco), and 1× Penicillin-Streptomycin (10,000 U/mL, Gibco)."}, "[7]": {"tested_on": "22Rv1 prostate cancer subcutaneous xenograft", "assay": "22Rv1 human tumor xenograft mouse model", "type": "in vivo, Balb/c nude mice", "settings": "22Rv1 xenografts", "experimental": "Male, 6–8 week old Balb/c nude mice with body weight range of 20–22 g were purchased from N.N.Blokhin Cancer Research Center. Animals were kept in plastic cages equipped with lids with feeding recesses, air filters, and feed dividers at 2–3 mice per cage.\nMice were injected subcutaneously in the right and left flanks with 1 × 10^7 22Rv1 cells in RPMI-1640 medium 0.2 mL supplemented with 0.2 mL Corning Matrigel® matrix (Corning, NY, USA) in a total volume of 400 μL. When the average size of the tumors reached ~100 mm^3, mice were randomly divided into three groups, with five mice per group, including a vehicle group (1% starch paste) and two treatment groups: PSMA-Abi 500 mg/kg/day and AbiAc 200 mg/kg/day for 14 days. The drugs were administered orally, and all compounds were formulated with 1% starch paste. Following the treatment, the primary tumor size was measured twice weekly with a micro-caliper, and the tumor volume was calculated using the formula: Volume = π/6 × length × width × height. Treatment outcome was based on percentage of tumor growth inhibition (%TGI), defined as the percent difference between the median tumor volumes (MTVs) of mice in the treated and control groups. Percent TGI was calculated using the following formula: %TGI = [1 − (MTV treatment group/MTV control)] 100%. All data are presented as means ± SD. Statistical analyses of in vivo research were performed using SPSS Statistics V. 22.0, comparing continuous variables by non-parametrical Mann–Whitney U. * p ≤ 0.05 was considered as significant in comparison with the control."}, "[8]": {"tested_on": "PC-3", "design": "method as in PMID 29310026", "settings": "PC-3 cell line; cited from earlier work"}, "[9]": {"tested_on": "PSA level", "design": "method as in PMID 22995653", "settings": "cited from earlier work"}, "[10]": {"tested_on": "PSMA", "design": "method as in PMID 33822606", "settings": "PSMA ligand; cited from earlier work"}, "[11]": {"settings": "oral x14, PSMA-Abi 500, AbiAc 200 mg/kg/day"}}, "note": "Read-outs that look alike come from different tables or passages of the source.", "data": [{"smiles": "CC(=O)O[C@H]1CC[C@@]2(C)C(=CC[C@@H]3[C@@H]2CC[C@]2(C)C(c4cccnc4)=CC[C@@H]32)C1", "note": "[AbiAc, abiraterone acetate, reference compound]", "values": [{"measurement": "S cells", "setting": "[1]; 22Rv1", "value": "unaffected"}, {"measurement": "level of G0/G1 cells", "setting": "[1]; 22Rv1, with increasing concentration", "value": "increased"}, {"measurement": "percentage of 22Rv1 cells in the G2/M phase", "setting": "[1]; with increasing concentration, compared to control cells", "value": "decreased"}, {"measurement": "ROS (hydrogen peroxide) level in single cells", "setting": "[2]", "value": "significantly increased compared to the control"}, {"measurement": "CC50 at 72 h", "setting": "[3]", "value": "> 100", "unit": "µM"}, {"measurement": "ROS (hydrogen peroxide) level in single cells", "setting": "[4]", "value": "significantly increased compared to the control"}, {"measurement": "LD50", "setting": "[5]", "value": 800, "unit": "mg/kg"}, {"measurement": "CC50", "setting": "[6]", "value": "22.7 ± 3.3", "unit": "µM"}, {"measurement": "TGImax (tumor growth inhibition)", "setting": "[7]; oral x14, PSMA-Abi 500 mg/kg/day, AbiAc 200 mg/kg/day, after the end of treatment", "value": 78, "unit": "%"}, {"measurement": "TGI, day 15 after start of the treatment", "setting": "[7]; [11]", "value": 78, "unit": "%"}, {"measurement": "TGI, day 18 after start of the treatment", "setting": "[7]; [11]", "value": 72, "unit": "%"}, {"measurement": "TGI, day 22 after start of the treatment", "setting": "[7]; [11]", "value": 69, "unit": "%"}, {"measurement": "Tumor volume (M+SE), day 15", "setting": "[7]; [11]", "value": "547±64", "unit": "mm3"}, {"measurement": "Tumor volume (M+SE), day 18", "setting": "[7]; [11]", "value": "811±72", "unit": "mm3"}, {"measurement": "Tumor volume (M+SE), day 22", "setting": "[7]; [11]", "value": "997±110", "unit": "mm3"}, {"measurement": "Tumor volume (M+SE), day 0", "setting": "[7]; start of treatment", "value": "91±20", "unit": "mm3"}, {"measurement": "CC50", "setting": "[8]", "value": "5.9 ± 0.8", "unit": "µM"}]}, {"smiles": "C[C@]12CC[C@H](O)CC1=CC[C@@H]1[C@@H]2CC[C@]2(C)C(c3cccnc3)=CC[C@@H]12", "note": "[abiraterone]", "values": [{"measurement": "patients with PSA level decreased by more than 90%", "setting": "[9]; chemotherapy-naïve patients", "value": 40, "unit": "%"}, {"measurement": "patients with PSA level decreased by more than 50%", "setting": "[9]; patients after ketoconazole therapy", "value": 33, "unit": "%"}, {"measurement": "patients with PSA level decreased by more than 50%", "setting": "[9]; patients who had not previously received chemotherapy", "value": 85, "unit": "%"}]}, {"smiles": "[N-]=[N+]=NCCCNC(=O)[C@H](Cc1ccc(O)cc1)NC(=O)[C@H](Cc1ccccc1)NC(=O)CCC(=O)NCCCCCC(=O)N(CCCC[C@H](NC(=O)N[C@@H](CCC(=O)O)C(=O)O)C(=O)O)Cc1cccc(Cl)c1", "note": "[PSMA ligand 1]", "values": [{"measurement": "IC50", "setting": "[10]", "value": "0.009 ± 0.003", "unit": "µM"}]}, {"smiles": "O=C(O)CCC(CP(=O)(O)O)C(=O)O", "note": "(stereo not shown) [2-PMPA, 2-Phosphonomethyl pentanedioic acid, reference compound]", "values": [{"measurement": "IC50", "setting": "[10]", "value": "[…]"}]}]}
